Experimental data from paper PMC10916402, “Meropenem-ANT3310, a unique β-lactam-β-lactamase inhibitor combination with expanded antibacterial spectrum against Gram-negative pathogens including carbapenem-resistant Acinetobacter baumannii” (Antimicrobial Agents and Chemotherapy, 2024).
pIC50: −log10 of the molar value. In brackets after ≈: the same amount, converted by molar mass. Like-named read-outs stand apart in the source and are kept apart here.

Legend:
KPC-2 = KPC-2 (Klebsiella pneumoniae, UniProt Q9F663); test: In vitro SBL inhibition assay (nitrocefin hydrolysis), IC50; type: biochemical
Sequence of KPC-2 (Q9F663 25-293 limits assumed): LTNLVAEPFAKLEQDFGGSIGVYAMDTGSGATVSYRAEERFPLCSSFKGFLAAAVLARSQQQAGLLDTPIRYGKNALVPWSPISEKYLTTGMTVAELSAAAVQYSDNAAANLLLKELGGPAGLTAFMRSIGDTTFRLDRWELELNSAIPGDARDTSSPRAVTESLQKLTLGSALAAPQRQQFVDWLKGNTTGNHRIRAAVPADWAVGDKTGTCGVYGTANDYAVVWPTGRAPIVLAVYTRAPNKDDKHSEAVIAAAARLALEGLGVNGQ
Protocol: (§1) Nitrocefin (Sigma-Aldrich, St Louis, MO, USA), a chromogenic cephalosporin antibiotic (λ, 482 nm; εM, 15,000 M^−1.cm^−1), was used as a reporter substrate at 100 µM for KPC-2, OXA-23, and OXA-48, at 200 µM for OXA-24 and OXA-51, and at 50 µM for OXA-58. Enzymes were preincubated in the presence of varying concentrations of each compound (0.006 to 3000 nM, diluted twofold in dimethyl sulfoxide (DMSO) for KPC-2, OXA-23, and OXA-48 assays and 0.51 to 10,000 nM diluted threefold in DMSO for OXA-24, OXA-51, and OXA-58) for 10 min at 30°C. Nitrocefin was then added and its hydrolysis by the uninhibited enzyme fraction was followed at an absorbance wavelength of 482 nm for 10 min at 30°C using Envision UV fluorescence plate reader (Perkin Elmer, Waltham, MA, USA). Hydrolysis rate data were used to determine inhibitory activities, expressed in IC50 values [corresponding to the compound concentration (µM) required to inhibit 50% of enzymatic reaction].

OXA-23 = OXA-23 (Acinetobacter baumannii, UniProt Q9L4P2); test: as above; type: biochemical; details: 10 min preincubation, 30°C, read-out: Enzyme IC50
Sequence of OXA-23 (Q9L4P2 18-273): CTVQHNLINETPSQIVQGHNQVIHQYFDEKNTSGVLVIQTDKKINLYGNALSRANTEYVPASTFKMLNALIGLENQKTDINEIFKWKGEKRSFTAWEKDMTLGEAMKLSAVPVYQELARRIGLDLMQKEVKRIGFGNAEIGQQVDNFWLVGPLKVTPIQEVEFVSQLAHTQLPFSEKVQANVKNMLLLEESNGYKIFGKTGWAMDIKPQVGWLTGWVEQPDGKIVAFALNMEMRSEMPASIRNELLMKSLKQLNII
Protocol: as §1

OXA-24/40 = OXA-24/40 (Acinetobacter baumannii, UniProt Q8RLA6); test: as above; type: biochemical; details: 10 min preincubation, 30°C, read-out: Enzyme IC50
Sequence of OXA-24/40 (Q8RLA6 22-275): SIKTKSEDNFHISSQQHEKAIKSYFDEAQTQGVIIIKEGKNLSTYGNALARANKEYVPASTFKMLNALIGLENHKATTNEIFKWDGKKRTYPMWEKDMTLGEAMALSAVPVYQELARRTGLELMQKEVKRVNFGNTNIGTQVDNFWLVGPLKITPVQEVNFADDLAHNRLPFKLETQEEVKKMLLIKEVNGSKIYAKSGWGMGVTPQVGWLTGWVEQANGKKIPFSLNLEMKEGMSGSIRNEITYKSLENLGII
Protocol: as §1

OXA-48 = OXA-48 (Klebsiella pneumoniae, UniProt Q6XEC0); test: as above; type: biochemical; details: 10 min preincubation, 30°C, read-out: Enzyme IC50
Sequence of OXA-48 (Q6XEC0 23-265, looked up, species assumed): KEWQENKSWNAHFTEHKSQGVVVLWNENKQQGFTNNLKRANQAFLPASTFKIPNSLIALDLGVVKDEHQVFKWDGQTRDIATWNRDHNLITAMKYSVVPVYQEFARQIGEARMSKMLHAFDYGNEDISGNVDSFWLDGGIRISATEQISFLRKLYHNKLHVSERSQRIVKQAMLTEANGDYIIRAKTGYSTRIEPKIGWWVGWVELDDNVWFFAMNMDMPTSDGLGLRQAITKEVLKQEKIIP
Protocol: as §1

OXA-51 = OXA-51 (Acinetobacter baumannii, UniProt Q5QT35); test: as above; type: biochemical, A. baumannii; details: 10 min preincubation, 30°C, read-out: Enzyme IC50
Sequence of OXA-51 (Q5QT35 entry or part of it): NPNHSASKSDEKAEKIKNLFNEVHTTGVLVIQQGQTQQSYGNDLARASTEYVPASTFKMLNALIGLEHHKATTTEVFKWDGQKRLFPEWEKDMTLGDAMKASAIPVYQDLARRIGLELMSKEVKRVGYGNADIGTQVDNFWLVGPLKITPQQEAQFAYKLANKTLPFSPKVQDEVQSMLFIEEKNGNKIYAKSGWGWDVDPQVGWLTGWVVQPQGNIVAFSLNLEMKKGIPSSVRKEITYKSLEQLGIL
Protocol: as §1

OXA-58 = OXA-58 (Acinetobacter baumannii, UniProt Q2TR58); test: as above; type: biochemical, A. baumannii
Sequence of OXA-58 (Q2TR58 19-280): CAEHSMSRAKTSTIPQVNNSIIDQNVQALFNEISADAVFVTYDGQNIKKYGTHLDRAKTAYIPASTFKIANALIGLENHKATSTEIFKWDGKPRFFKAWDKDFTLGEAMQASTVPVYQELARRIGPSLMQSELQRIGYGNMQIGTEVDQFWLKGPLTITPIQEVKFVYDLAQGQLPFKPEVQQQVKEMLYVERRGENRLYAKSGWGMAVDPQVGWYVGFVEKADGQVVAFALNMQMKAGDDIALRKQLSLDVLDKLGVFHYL
Protocol: as §1

[1] = test system: A. baumannii clinical isolates; test: Broth microdilution MIC, A. baumannii clinical isolates; type: cell-based, Acinetobacter baumannii; details: for MIC50: read-out: MIC50
In short: (§2)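 Broth microdilution per CLSI and EUCAST in cation-adjusted Mueller Hinton broth, iron-depleted for cefiderocol; ANT3310 panels prepared fresh on test day. Isolates collected 2018–2019, identity confirmed by MALDI-TOF. MIC taken as first well without visible growth, interpreted with 2023 CLSI and EUCAST breakpoints.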

[2] = test system: OXA- or KPC-Enterobacterales clinical isolates; test: Broth microdilution MIC, OXA- or KPC-positive Enterobacterales; type: cell-based
Protocol: (§3) All isolates were randomly selected from the frozen culture collection of IHMA collected in 2018 and 2019. Matrix-assisted laser desorption ionization-time of flight mass spectrometry was used to confirm the identity of the organisms tested (Bruker Daltonics, Bremen, Germany).
(§4) MICs for all antimicrobial agents were determined at IHMA by broth microdilution in accordance with both CLSI ([17]) and EUCAST ([18]) guidelines. Microtiter panels were prepared by IHMA and stored at −70°C in cation-adjusted Mueller Hinton broth (CAMHB) (Becton Dickinson). Iron-depleted CAMHB was used to test cefiderocol. Panels containing ANT3310 were prepared fresh on the day of testing. […] MIC values corresponded to the first well with no visible growth. Quality control testing was performed on each day of testing with E. coli ATCC 25922, P. aeruginosa ATCC 27853, K. pneumoniae ATCC 700603 and BAA 1705, and A. baumannii NCTC 13304. MICs were interpreted using 2023 CLSI ([17]) and EUCAST ([18]) BPs.

[3] = test system: P. aeruginosa clinical isolates; test: Broth microdilution MIC, P. aeruginosa clinical isolates; type: cell-based, Pseudomonas aeruginosa; details: ANT3310 alone, P. aeruginosa N 502
Protocol: as §3, §4

[4] = test system: Enterobacterales, P. aeruginosa and A. baumannii clinical isolates; test: Intrinsic antibacterial activity of ANT3310 alone, all 1,207 isolates; type: cell-based
Protocol: as §3, §4

[5] = test system: carbapenem-resistant Acinetobacter baumannii (CRAB) clinical isolates; test: Broth microdilution MIC, CRAB isolates; type: cell-based; details: 2018 Global collection, CRAB (MEM MICs >4 µg/mL), N 363
In short: as §2

[6] = test system: KPC-producing Enterobacterales (KPC-CRE); test: organism not typed; type: cell-based
In short: as §2

[7] = test system: OXA-producing Enterobacterales (OXA-CRE); test: organism not typed; type: cell-based
In short: as §2

[8] = test system: A. baumannii ACC00445 (OXA-23); test: MIC against the isolate used in the infection models; type: cell-based; details: Acinetobacter baumannii
Protocol: as §4

[9] = ANT3310 alone, A. baumannii N 405
[10] = ANT3310 alone, OXA- or KPC-Enterobacterales N 300
[11] = 2018 Global collection, All A. baumannii, N 500

## O=C1N2C[C@@H](CC[C@H]2F)N1OS(=O)(=O)O [ANT3310]
KPC-2
  pIC50: 7.71
OXA-23
  pIC50: 7.49
OXA-24/40
  pIC50: 6.22
OXA-48
  pIC50: 6.75
OXA-51
  pIC50: 6.27
OXA-58
  pIC50: 8.10
[1]; [9]
  MIC90: >64 µg/mL
  Number of isolates inhibited at MIC of 4 µg/mL: 1
  Number of isolates inhibited at MIC of 8 µg/mL: 4
  Number of isolates inhibited at MIC of 16 µg/mL: 1
  Number of isolates inhibited at MIC of 32 µg/mL: 11
  Number of isolates inhibited at MIC of 64 µg/mL: 38
  Number of isolates inhibited at MIC of >64 µg/mL: 350
[1]; Acinetobacter baumannii, ANT3310 alone, A. baumannii N 405
  MIC50: 64 µg/mL (≈ 266 µM)
[1]; Acinetobacter baumannii, ANT3310 alone, A. baumannii N 405, read-out: MIC90
  MIC90: > 64 µg/mL
[2]
  MIC50: > 64 µg/mL
  MIC90: > 64 µg/mL
[2]; [10]
  MIC50: >64 µg/mL
  MIC90: >64 µg/mL
  Number of isolates inhibited at MIC of 8 µg/mL: 1
  Number of isolates inhibited at MIC of 32 µg/mL: 8
  Number of isolates inhibited at MIC of 64 µg/mL: 234
  Number of isolates inhibited at MIC of >64 µg/mL: 57
[3]
  MIC50: >64 µg/mL
  MIC90: >64 µg/mL
  Number of isolates inhibited at MIC of 16 µg/mL: 2
  Number of isolates inhibited at MIC of 32 µg/mL: 9
  Number of isolates inhibited at MIC of 64 µg/mL: 15
  Number of isolates inhibited at MIC of >64 µg/mL: 476
[3]; Pseudomonas aeruginosa, read-out: MIC50
  MIC50: > 64 µg/mL
[3]; Pseudomonas aeruginosa, read-out: MIC90
  MIC90: > 64 µg/mL
[4]; ANT3310 alone, 1,207 isolates
  Intrinsic antibacterial activity: No clinically significant antibacterial activity
[4]; of the 1,207 isolates tested, ANT3310 alone
  Number of isolates with ANT3310 MICs ≤8 µg/mL: 6

## CN(C)c1cc(NC(=O)CNC(C)(C)C)c(O)c2c1C[C@H]1C[C@H]3[C@H](N(C)C)C(O)=C(C(N)=O)C(=O)[C@@]3(O)C(O)=C1C2=O [Tigecycline, tigecycline]
[1]; [11]
  Number of isolates inhibited at MIC of 0.25 µg/mL: 40
  Number of isolates inhibited at MIC of 0.5 µg/mL: 41
  Number of isolates inhibited at MIC of 1 µg/mL: 76
  Number of isolates inhibited at MIC of 2 µg/mL: 162
  Number of isolates inhibited at MIC of 4 µg/mL: 140
  Number of isolates inhibited at MIC of 8 µg/mL: 31
  Number of isolates inhibited at MIC of 16 µg/mL: 4
  Number of isolates inhibited at MIC of ≤0.125 µg/mL: 6
[1]; Acinetobacter baumannii, 2018 Global collection, All A. baumannii, N 500
  MIC50: 2 µg/mL (≈ 3.41 µM)
[1]; Acinetobacter baumannii, 2018 Global collection, All A. baumannii, N 500, read-out: MIC90
  MIC90: 4 µg/mL (≈ 6.83 µM)
[1]; Acinetobacter baumannii, A. baumannii, one or both of the 2018/2019 collections, read-out: MIC90
  MIC90: 4 µg/mL (≈ 6.83 µM)
[5]
  Number of isolates inhibited at MIC of 0.5 µg/mL: 7
  Number of isolates inhibited at MIC of 1 µg/mL: 48
  Number of isolates inhibited at MIC of 2 µg/mL: 146
  Number of isolates inhibited at MIC of 4 µg/mL: 131
  Number of isolates inhibited at MIC of 8 µg/mL: 28
  Number of isolates inhibited at MIC of 16 µg/mL: 3
[5]; Acinetobacter baumannii, read-out: MIC50
  MIC50: 2 µg/mL (≈ 3.41 µM)
[5]; Acinetobacter baumannii, read-out: MIC90
  MIC90: 4 µg/mL (≈ 6.83 µM)
[6]
  MIC50: 1 µg/mL (≈ 1.71 µM)
  MIC90: 4 µg/mL (≈ 6.83 µM)
[7]
  MIC50: 2 µg/mL (≈ 3.41 µM)
  MIC90: 4 µg/mL (≈ 6.83 µM)
[8]
  MIC: 2 µg/mL (≈ 3.41 µM)
